Assay results: patent US10577349B2 (Sanford Burnham Prebys Medical Discovery Institute, priority 2015, dated 2020)
Values after ≈ are worked out from the molar mass of the structure shown. Read-outs that look alike come from different tables or passages of the source.

Experiments:
PAMPA Permeability = assay type: in vitro ADME
[1] = molecular target: EmCV Cap-independent translation; assay: In vitro translation assay, FF-EmCV-Ren construct, cap-independent (Ren luciferase); assay type: biochemical, rabbit reticulocyte lysates
Method in brief: (§1)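 Rabbit reticulocyte lysate with -Met/-Leu translation mixes (1:1) was pre-incubated with compounds 1 h at room temperature, then programmed with 0.1 μg bicistronic RNA per well and translated 2 h at 30° C. FF luciferase (cap-dependent) and then Ren luciferase (IRES-driven) were read by Dual-Glo luminescence.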

[2] = Aqueous Solubility in pION's buffer; assay type: physicochemical
[3] = molecular target: EmCV Cap-dependent translation; assay: In vitro translation assay, FF-EmCV-Ren construct, cap-dependent (FF luciferase); assay type: biochemical, rabbit reticulocyte lysates
Method in brief: as §1

[4] = molecular target: HCV cap-dependent translation; assay: In vitro translation assay, FF-HCV-Ren construct, cap-dependent (FF luciferase); assay type: biochemical, rabbit reticulocyte lysates
Method in brief: as §1

A375 = assay: 48 h Cytotoxicity A375; assay type: cell-based; settings: Homo sapiens, A-375
[5] = Hepatic Microsome Stability Human; assay type: in vitro ADME
[6] = Aqueous Solubility in 1xPBS, pH 7.4; assay type: physicochemical; settings: pH 7.4, aqueous buffer
[7] = Hepatic Microsome Stability Mouse; assay type: in vitro ADME
[8] = molecular target: HCV cap-independent translation; assay: In vitro translation assay, FF-HCV-Ren construct, cap-independent (Ren luciferase); assay type: biochemical, rabbit reticulocyte lysates
Method in brief: as §1

eIF4F complex = molecular target: T1, eIF4F complex (Mus musculus, UniProt Q6NZJ6); assay: m7GTP pull-down assay, WT or 4E-BP DKO MEFs; assay type: cell-based; settings: 6 hours, Torin1 250 nmol/L
T1 construct: endogenous in cells; host or cells: WT and 4E-BP1/2 double-knock-out MEFs
T1 sequence (Q6NZJ6 whole entry, one chain of several): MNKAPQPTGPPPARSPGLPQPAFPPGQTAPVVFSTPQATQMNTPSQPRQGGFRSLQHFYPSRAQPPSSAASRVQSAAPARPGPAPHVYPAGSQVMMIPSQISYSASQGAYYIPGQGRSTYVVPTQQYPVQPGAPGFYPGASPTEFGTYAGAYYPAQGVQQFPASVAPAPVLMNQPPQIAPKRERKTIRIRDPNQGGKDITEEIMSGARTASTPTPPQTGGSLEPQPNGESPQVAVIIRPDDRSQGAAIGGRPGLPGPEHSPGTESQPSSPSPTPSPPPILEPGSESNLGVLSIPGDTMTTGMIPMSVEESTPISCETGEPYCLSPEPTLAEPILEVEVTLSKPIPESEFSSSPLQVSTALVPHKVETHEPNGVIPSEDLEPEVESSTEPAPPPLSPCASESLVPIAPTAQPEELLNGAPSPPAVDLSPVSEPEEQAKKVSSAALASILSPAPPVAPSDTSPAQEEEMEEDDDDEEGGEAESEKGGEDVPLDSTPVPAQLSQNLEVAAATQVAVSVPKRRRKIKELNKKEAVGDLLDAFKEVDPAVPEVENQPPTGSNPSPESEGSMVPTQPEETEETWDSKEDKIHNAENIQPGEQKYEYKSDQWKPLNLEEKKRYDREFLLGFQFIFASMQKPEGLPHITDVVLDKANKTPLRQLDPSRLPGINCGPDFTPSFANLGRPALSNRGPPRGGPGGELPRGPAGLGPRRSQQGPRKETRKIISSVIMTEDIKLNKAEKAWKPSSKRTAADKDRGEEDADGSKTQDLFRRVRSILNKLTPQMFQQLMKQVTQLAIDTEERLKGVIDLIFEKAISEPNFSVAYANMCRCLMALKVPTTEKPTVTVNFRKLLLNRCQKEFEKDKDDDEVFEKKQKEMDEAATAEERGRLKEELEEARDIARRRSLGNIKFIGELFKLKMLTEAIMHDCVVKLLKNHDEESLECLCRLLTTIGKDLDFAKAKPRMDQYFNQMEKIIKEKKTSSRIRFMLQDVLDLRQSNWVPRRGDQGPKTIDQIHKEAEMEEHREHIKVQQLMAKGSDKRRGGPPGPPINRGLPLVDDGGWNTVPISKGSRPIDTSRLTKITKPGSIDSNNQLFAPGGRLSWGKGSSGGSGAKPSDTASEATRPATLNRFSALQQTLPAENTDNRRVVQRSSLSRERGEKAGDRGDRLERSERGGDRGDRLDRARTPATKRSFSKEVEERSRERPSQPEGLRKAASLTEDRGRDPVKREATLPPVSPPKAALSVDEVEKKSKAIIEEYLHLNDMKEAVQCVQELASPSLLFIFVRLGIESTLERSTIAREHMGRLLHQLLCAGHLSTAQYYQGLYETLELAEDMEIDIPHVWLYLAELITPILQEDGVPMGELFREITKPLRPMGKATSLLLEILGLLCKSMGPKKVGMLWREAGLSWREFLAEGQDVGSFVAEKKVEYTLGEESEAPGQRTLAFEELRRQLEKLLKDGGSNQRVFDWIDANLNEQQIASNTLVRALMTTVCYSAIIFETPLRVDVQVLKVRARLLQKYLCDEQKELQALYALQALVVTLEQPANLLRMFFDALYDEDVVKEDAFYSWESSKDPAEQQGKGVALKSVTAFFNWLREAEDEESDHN
Experimental: As previously described (Dowling R J, et al. mTORC1-mediated cell proliferation, but not cell growth, controlled by the 4E-BPs. Science. 2010; 328:1172-6), cells growing in 100 mm plates were washed (cold PBS), collected, and lysed in 50 mM MOPS/KOH (7.4), 100 mM NaCl, 50 mM NaF, 2 mM EDTA, 2 mM EGTA, 1% NP40, 1% Na-DOC, 7 mM β-mercaptoethanol, protease inhibitors and phosphatase inhibitor cocktail (Roche). Lysates were incubated with m7-GDP-agarose beads (Jena Bioscience) for 20 minutes, washed 4 times with the washing buffer containing 50 mM MOPS/KOH (7.4), 100 mM NaCl, 50 mM NaF, 0.5 mM EDTA, 0.5 mM EGTA, 7 mM (3-mercaptoethanol, 0.5 mM PMSF, 1 mM Na3VO4 and 0.1 mM GTP, and bound proteins were eluted by boiling the beads in loading buffer. m7-GDP-agarose pulled down material was analyzed by Western blot analysis.
Indicated cultures (WT or DKO 4E-BP) were treated with Torin1 (250 nmol/L) or indicated Compound 38 concentrations for 6 hours. Western blots show respective protein levels in total cell lysates or following pull-down using m^7GTP agarose beads. […] P3-Actin served as a loading control and to exclude contamination in m^7GTP pull-down.

A375 tumors = assay: A375 xenograft in nude mice; assay type: in vivo
Experimental: All animal studies were conducted in the SBMRI Animal Facility in accordance with the Institutional Animal Care and Use Committee guidelines. Six-week-old female nu/nu mice were purchased Harlan Laboratories (Indianapolis, Ind.) and allowed to acclimatize for 1 week. A375 cells (1×10^6, suspended in 200 μL sterile PBS) were injected into subcutaneous flank tissue. When the xenograft size reached ˜250 mm^3, mice were sorted into different groups. For PLX4720 and Compound 38 combination experiments, mice were either fed PLX4720-containing chow alone (AIN76A Roden Diet with 417 mg PLX4720/kg from Open Source Diets) for the control group or PLX4 720-containing chow plus an IP injection of 1 mg/kg Compound 38 twice a week. For MEKi plus Compound 38 experiments, PD0325901 at 20 mg/kg (formulated in 0.5% hydroxypropyl methylcellulose plus 0.2% Tween-80) was administered by oral gavage twice a week (Monday and Thursday) for the control group, or PD035901 plus IP injection of 1 mg/kg Compound 38 was administered twice a week (Tuesday and Friday). Mice were maintained in a pathogen-free environment with free access to food. Body weight and tumor volume were measured twice a week. Tumor size was measured with linear calipers and calculated using the formula: ([length in millimeters×(width in millimeters)2]/2). Mice were sacrificed after 4 weeks and tumors were fixed in Z-Fix (Anatech, Battle Creek, Mich.) and embedded in paraffin for immunohistochemistry.
A375 human melanomacells were injected subcutaneously (1×10^6) into the flank of nude mice and allowed to form established tumors. Once tumors reached approximately 250 mm3, mice were randomly grouped and subjected to the indicated treatments [chow containing PLX4720 (417 mg/kg) and/or Compound 38 (1 mg/kg, 2 times per week intraperitoneally)]. Tumor size was measured at the indicated time points. The experiment was repeated twice. […] When tumors were allowed to reach 500 mm^3 before initiating treatment, 5 of 7 […] mice subjected to BRAFi treatment alone relapsed as drug-resistant tumors (4/5 within 4-6 weeks), whereas only 3 of 6 (50%) subjected to combination treatment developed resistance, albeit more slowly (2/3 after 8 weeks; FIG. 22). […] Proteins prepared at the indicated times from A375 tumors that were subjected in vivo to treatment with Compound 38 were incubated with m^7GTP-beads to capture the eIF4F complex. Shown is time-dependent inhibition of eIF4G1 binding to eIF4E in vivo, concomitant with increased binding of inhibitory 4E-BP1 to eIF4E.

[9] = Donor pH 5.0, Acceptor pH 7.4, read-out: PAMPA Permeability, Pe, Donor pH 5.0
[10] = Donor pH 6.2, Acceptor pH 7.4, read-out: PAMPA Permeability, Pe, Donor pH 6.2
[11] = pH 7.4, Donor pH 7.4, Acceptor pH 7.4, read-out: PAMPA Permeability, Pe, Donor pH 7.4
[12] = aqueous buffer, pH 5.0, read-out: Aqueous Solubility in pION's buffer pH 5.0
[13] = pH 6.2, aqueous buffer, read-out: Aqueous Solubility in pION's buffer pH 6.2
[14] = pH 7.4, aqueous buffer, read-out: Aqueous Solubility in pION's buffer pH 7.4

Row | Structure (SMILES) | Papp (PAMPA Permeability; [9]) | Papp (PAMPA Permeability; [10]) | Papp (PAMPA Permeability; [11]) | IC50 [1] | solubility [2, 12] | solubility [2, 13] | solubility [2, 14] | IC50 [3] | IC50 [4] | IC50 (A375) | Hepatic Microsome Stability (% Remaining at 1 hr) Human [5] | Hepatic Microsome Stability (% Remaining at 1 hr) Human (no NADPH) [5] | solubility [6] | Hepatic Microsome Stability (% remaining at 1 Hr) Mouse [7] | Hepatic Microsome Stability (% remaining at 1 Hr) Mouse (no NADPH) [7] | IC50 [8] | eIF4G1:eIF4E association (m7GTP pull-down) (eIF4F complex) | Growth of established tumors (~250 mm^3), BRAFi alone (A375 tumors; chow containing PLX4720 (417 mg/kg)) | Tumors resumed growth, BRAFi-treated group (A375 tumors; treatment started at ~250 mm^3, PLX4720 chow)
1 | O=C(/C=C/c1nc2cc(Cl)ccc2[nH]1)c1c(-c2ccccc2)c2cc(Cl)ccc2[nH]c1=O [Compound 62, 6-Chloro-3-[3-(5-chloro-1H-benzoimidazol-2-yl)-acryloyl]-4-phenyl-1H-quinolin-2-one] | 29 ×10⁻⁶ cm/s | 6.2 ×10⁻⁶ cm/s | 2.5 ×10⁻⁶ cm/s | 2 to 10 µM | 0.34 µg/mL (≈ 0.739 µM) | 0.42 µg/mL (≈ 0.912 µM) | 0.12 µg/mL (≈ 0.261 µM) | 2 to 10 µM | 2 to 10 µM | < 2 µM | 89.89 % Remaining | 54.66 % Remaining | 0.11 µg/mL (≈ 0.239 µM) | 85.64 % remaining | 82.96 % remaining | 2 to 10 µM |  |  | 
2 | CCC(=O)N1CCN(c2ccc(-n3c(=O)ccc4cnc5ccc(-c6cnc7ccccc7c6)cc5c43)cc2C(F)(F)F)CC1 [torin1, reference compound] |  |  |  |  |  |  |  |  |  |  |  |  |  |  |  |  | induced dissociation of eIF4G1 from eIF4E in WT but not in 4E-BPDKOMEFs |  | 
3 | O=C(/C=C/c1ccccc1)c1c(C2CCCCC2)c2cc(Cl)ccc2[nH]c1=O [Compound 12, 6-chloro-3-cinnamoyl-4-cyclohexylquinolin-2(1H)-one] | 1010 ×10⁻⁶ cm/s | 301 ×10⁻⁶ cm/s | 379 ×10⁻⁶ cm/s | 10 to 20 µM | 1.6 µg/mL (≈ 4.08 µM) | 1.4 µg/mL (≈ 3.57 µM) | 1.2 µg/mL (≈ 3.06 µM) | 2 to 10 µM | 10 to 20 µM | < 2 µM | 59.85 % Remaining | 57.73 % Remaining | 1.5 µg/mL (≈ 3.83 µM) | 32.98 % remaining | 63.69 % remaining | > 20 µM |  |  | 
4 | O=C(/C=C/c1nc2ccccc2[nH]1)c1c(O)nc2ccc(Cl)cc2c1-c1ccccc1 [BI-69A11, reference compound] | 13 ×10⁻⁶ cm/s | 16 ×10⁻⁶ cm/s | 42 ×10⁻⁶ cm/s |  | 0.16 µg/mL (≈ 0.376 µM) | 0.24 µg/mL (≈ 0.564 µM) | 0.1 µg/mL (≈ 0.235 µM) |  |  |  | 68.24 % Remaining | 61.74 % Remaining | 0.11 µg/mL (≈ 0.258 µM) | 48.54 % remaining | 45.01 % remaining |  |  |  | 
5 | CCCS(=O)(=O)Nc1ccc(F)c(C(=O)c2c[nH]c3ncc(Cl)cc23)c1F [PLX4720, reference compound] |  |  |  |  |  |  |  |  |  |  |  |  |  |  |  |  |  | largely inhibited | 3/5
6 | O=C(/C=C/c1ccoc1)c1c(-c2ccccc2)c2cc(Cl)ccc2[nH]c1=O [Compound 50, 6-Chloro-3-(3-furan-3-yl-acryloyl)-4-phenyl-1H-quinolin-2-one] |  |  |  | 10 to 20 µM |  |  |  | 2 to 10 µM | > 20 µM | < 2 µM |  |  |  |  |  | > 20 µM |  |  | 
7 | N#Cc1cncc(-c2c(C(=O)/C=C/c3ccccn3)c(=O)[nH]c3ccc(Cl)cc23)c1 [Compound 106, 5-[3-((2E)-3-(2-pyridyl)prop-2-enoyl)-6-chloro-2-oxo-4-hydroquinolyl]pyridine-3-carbonitrile] |  |  |  | 10 to 20 µM |  |  |  | > 20 µM | > 20 µM | < 2 µM |  |  |  |  |  | 10 to 20 µM |  |  | 
8 | Cc1ccnc(-c2c(C(=O)/C=C/c3ccccn3)c(=O)[nH]c3ccc(Cl)cc23)c1 [Compound 94, 3-((2E)-3-(2-pyridyl)prop-2-enoyl)-6-chloro-4-(4-methyl(2-pyridyl))hydroquinolin-2-one] |  |  |  | > 20 µM |  |  |  | > 20 µM | > 20 µM | 2 to 10 µM |  |  |  |  |  | > 20 µM |  |  | 
9 | O=C(/C=C/c1ccc(Br)cn1)c1c(-c2ccccc2)c2cc(Cl)ccc2[nH]c1=O [Compound 47, 3-[3-(5-Bromo-pyridin-2-yl)-acryloyl]-6-chloro-4-phenyl-1H-quinolin-2-one] |  |  |  | 2 to 10 µM |  |  |  | 2 to 10 µM | 2 to 10 µM | < 2 µM |  |  |  |  |  | 2 to 10 µM |  |  | 
10 | O=C(/C(Br)=C/c1cncc(F)c1)c1c(-c2ccccc2)c2cc(Cl)ccc2[nH]c1=O (single isomer, unassigned) [Compound 110, 3-[(2Z)-2-bromo-3-(5-fluoro(3-pyridyl))prop-2-enoyl]-6-chloro-4-phenylhydroquinolin-2-one] |  |  |  | 2 to 10 µM |  |  |  | 2 to 10 µM | 2 to 10 µM | 2 to 10 µM |  |  |  |  |  | 2 to 10 µM |  |  | 
